# Measurements taken from US20240132493A1, “IMIDAZOPYRIDINE DERIVATIVES AS STING AGONISTS” (Fulgent Genetics, Inc., priority 2021, published 2024).
# Tests used:
# [1] = biological target: T1, STING (Homo sapiens, UniProt Q86WV6, G230A/H232R/R293Q/R71H); assay: Western blot analysis of activated STING and its downstream protein phosphorylation in THP-1 cells; format: cell-based; conditions: 10 μM compound, 3 h, vs DMSO
# T1 construct: Human monocyte cell THP-1 were purchased from ATCC (Catalog No. TIB-202); host or cells: THP-1 human monocyte cells
# Protocol: The Western blot analysis of activated STING and its downstream protein phosphorylation in human monocyte THP-1 cells
# (§1) Human monocyte cell THP-1 were purchased from ATCC (Catalog No. TIB-202). The complete growth medium was made with ATCC-formulated RPMI-1640 Medium (Catalog No. 30-2001) and supplemented with 2-mercaptoethanol to a final concentration of 0.05 mM, and fetal bovine serum (FBS) to a final concentration of 10%.
# After the THP-1 cells were treated with the 10 μM invented compounds for 3 hours, the cells were lysed by RIPA buffer, followed by washing with PBS. The total protein concentration was measured by BCA protein assay. The 10 μg protein sample was loaded after mixing with SDS-PAGE protein loading buffer, separated on SDS-PAGE and transferred to a PVDF membrane using the semi-dry transfer apparatus. After blocking with 5% BSA for 1 hr, the membrane was incubated with 1st antibodies overnight at 4° C., followed by incubation with HRP-conjugated 2nd antibodies (Catalog No. WBULS0100 from Millipore) for another 1 hr at room temperature. Lastly, the immunocomplexes were detected via the Bio-Rad ChemiDoc Touch Imaging System. Antibodies for western blotting were purchased from Cell Signaling Technology, catalog numbers 19781 (p-STING Ser366), 13647 (STING), 5483 (p-TBK1 Ser 172), 3504 (TBK1), 4947 (p-IRF3 Ser396), 4302 (IRF3) and 7074 (HRP-linked anti-rabbit IgG).
# [2] = biological target: T1, STING; assay: qPCR analysis of mRNA levels of cytokine gene expression (IFNB, ISG15, CXCL10) in THP-1 cells; format: cell-based; conditions: 10 μM compound, 6 h, vs DMSO
# Protocol: as §1, with “qPCR analysis of mRNA levels of cytokine gene expression in THP-1 cell Human” for “Human”
# To evaluate the agonistic effects of chemicals on STING, the gene expression of IFNB, ISG15 and CXCL10 in human monocyte THP-1 cells was measured by real time qPCR. After the treatment of 10 μM Compounds for 6 hrs, cells were respectively lysed by TRIzol reagents (from Invitrogen). Total RNA was extracted according to the manufacturer's instruction. mRNA concentration was measured via 3rd generation NanoDrop machine. 1 μg of mRNA was used for the reverse transcription reaction with random primer, dNTP mix, RNase inhibitor and M-MuLV Reverse Transcriptase. SYBR green supermix and hot start DNA polymerase were used in qPCR with TBP gene as an internal control. Gene-specific primers were purchase from Integrated DNA Technologies.
# [3] = system: CT-26 mouse colon adenocarcinoma; assay: Antitumor efficacy in s.c. CT-26 mouse colon adenocarcinoma model; format: in vivo, BALB/c mice
# Protocol: Evaluation of Antitumor Efficacy in CT-26 Mouse Model
# Six- to eight-week-old male BALB/c mice of 18-20 g were purchased from Taconic Biosciences (La Jolla, CA). Mouse colon carcinoma CT-26 (from ATCC) cells were maintained in RPMI-1640 medium supplemented with 10% fetal bovine serum (FBS), 100 U/ml penicillin and 100 μg/ml streptomycin, and incubated at 37° C. and 5% CO2. The cells growing in an exponential growth phase were harvested and counted for tumor inoculation. Each mouse was inoculated subcutaneously at the left and the right flank with 5×10^4 CT-26 tumor cells in 0.1 ml of serum-free medium for tumor development.
# Mice were randomized into study groups with 8 mice/group when average tumor volume was ˜70 mm^3. […] Tumor size and body weight were measured twice per week throughout the study. Tumor volume was calculated by applying length and width caliper measurements to the following formula: TV=0.5*L*W^2. Percent treated/control (T/C) value was calculated as 100×ΔT/ΔC (when ΔT>0) or 100×ΔT/Tsd (when ΔT<0) where ΔT and ΔC are the changes in the mean tumor volumes between the indicated day and the first day of measurement for the treatment and control groups, respectively. […] Statistical analyses of the differences in tumor volume among the groups were evaluated using a one-way ANOVA. […]
# [4] = Tolerability and body weight in CT-26 mouse model; format: in vivo; conditions: 3×1.5 mg/kg IP, BALB/c mice bearing CT-26
# Protocol: Mice were randomized into study groups with 8 mice/group when average tumor volume was ˜70 mm^3. On day 1, 4 and 8 mice were dosed with vehicle or 1.5 mg/kg Cpd 4 (Example 4) in 5% DMSO, 45% PEG400, and […] formulation by intraperitoneal injection. Tumor size and body weight were measured twice per week throughout the study. Tumor volume was calculated by applying length and width caliper measurements to the following formula: TV=0.5*L*W^2. Percent treated/control (T/C) value was calculated as 100×ΔT/ΔC (when ΔT>0) or 100×ΔT/Tsd (when ΔT<0) where ΔT and ΔC are the changes in the mean tumor volumes between the indicated day and the first day of measurement for the treatment and control groups, respectively. Tsd is the first day mean tumor volume of the treated group. Statistical analyses of the differences in tumor volume among the groups were evaluated using a one-way ANOVA. All data were analyzed using GraphPad Prism 8 (GraphPad Software, San Diego, CA). p<0.05 was considered to be statistically significant.
# T1 sequence (Q86WV6 whole entry R71H/G230A/H232R/R293Q): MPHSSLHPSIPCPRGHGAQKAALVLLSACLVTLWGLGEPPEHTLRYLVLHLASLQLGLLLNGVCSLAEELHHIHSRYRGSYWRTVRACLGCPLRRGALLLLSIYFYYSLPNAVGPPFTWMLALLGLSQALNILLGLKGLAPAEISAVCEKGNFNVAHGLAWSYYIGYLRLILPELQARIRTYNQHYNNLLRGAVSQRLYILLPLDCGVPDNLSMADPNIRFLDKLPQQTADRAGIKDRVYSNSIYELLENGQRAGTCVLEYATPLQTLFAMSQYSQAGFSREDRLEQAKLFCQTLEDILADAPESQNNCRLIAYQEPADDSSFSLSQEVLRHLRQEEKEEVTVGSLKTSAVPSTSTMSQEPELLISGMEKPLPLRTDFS
SMILES,p-IRF3 level [1],p-TBK1 level [1],phosphorylated STING (p-STING) level [1],mRNA level of CXCL10 [2],mRNA level of IFNB [2],mRNA level of ISG15 [2],"tumor growth rate of treated/control (T/C) ([3]; 3×1.5 mg/kg IP (day 1, 4, 8), day 12, s.c. CT-26 in BALB/c mice)","antitumor efficacy (tumor volume) ([3]; 3×1.5 mg/kg IP, s.c. CT-26 in BALB/c mice)",body weight [4],tolerability [4]
"CCn1nc(C)cc1C(=O)Nc1nc2cc(C(N)=O)cnc2n1C/C=C/Cn1c(NC(=O)c2cc(C)nn2CC)nc2cc(C(N)=O)cc(OCCCN3CCOCC3)c21 [Example 4, (E)-3-(4-(5-carbamoyl-2-(1-ethyl-3-methyl-1H-pyrazole-5-carboxamido)-7-(3-morpholinopropoxy)-1H-benzo[d]imidazol-1-yl)but-2-en-1-yl)-2-(l-ethyl-3-methyl-1H-pyrazole-5-carboxamido)-3H-imidazo[4,5-b]pyridine-6-carboxamide]",higher levels,higher levels,higher levels,significantly upregulated,significantly upregulated,significantly upregulated,19%,highly potent,no bodyweight loss,well-tolerated
"CCn1nc(C)cc1C(=O)/N=c1\n(C)c2cc(C(N)=O)cnc2n1C/C=C/Cn1/c(=N/C(=O)c2cc(C)nn2CC)n(C)c2cc(C(N)=O)cc(OCCCN3CCOCC3)c21 [Example 6, (E)-3-((E)-4-((E)-5-carbamoyl-2-((1-ethyl-3-methyl-1H-pyrazole-5-carbonyl)imino)-3-methyl-7-(3-morpholinopropoxy)-2,3-dihydro-1H-benzo[d]imidazol-1-yl)but-2-en-1-yl)-2-((1-ethyl-3-methyl-1H-pyrazole-5-carbonyl)imino)-1-methyl-2,3-dihydro-1H-imidazo[4,5-b]pyridine-6-carboxamide]",–,–,–,significantly upregulated,significantly upregulated,significantly upregulated,–,–,–,–
"CCn1nc(C)cc1C(=O)Nc1nc2cc(C(N)=O)cnc2n1C/C=C/Cn1c(NC(=O)c2cc(C)nn2CC)nc2cc(C(N)=O)cc(OCCCN3CCNCC3)c21 [Example 8, (E)-3-(4-(5-carbamoyl-2-(1-ethyl-3-methyl-1H-pyrazole-5-carboxamido)-7-(3-(piperazin-1-yl)propoxy)-1H-benzo[d]imidazol-1-yl)but-2-en-1-yl)-2-(1-ethyl-3-methyl-1H-pyrazole-5-carboxamido)-3H-imidazo[4,5-b]pyridine-6-carboxamide]",higher levels,higher levels,higher levels,significantly upregulated,significantly upregulated,significantly upregulated,–,–,–,–
"CCn1nc(C)cc1C(=O)Nc1nc2cc(C(N)=O)cnc2n1C/C=C/Cn1c(NC(=O)c2cc(C)nn2CC)nc2cc(C(N)=O)cc(OCCN3CCOCC3)c21 [Example 10, (E)-3-(4-(5-carbamoyl-2-(1-ethyl-3-methyl-1H-pyrazole-5-carboxamido)-7-(2-morpholinoethoxy)-1H-benzo[d]imidazol-1-yl)but-2-en-1-yl)-2-(1-ethyl-3-methyl-1H-pyrazole-5-carboxamido)-3H-imidazo[4,5-b]pyridine-6-carboxamide]",higher levels,higher levels,higher levels,significantly upregulated,significantly upregulated,significantly upregulated,–,–,–,–
